Experimental data reported in patent publication US11701389B2, “Methods of preserving mesenchymal stem cells” (Emory University, priority 2016, dated 2023).
Where a SMILES comes first, the peptide text is derived from it. The star is where a group is joined. Cbz = O=C(OCc1ccccc1)*; CH2F = FC*

Test system: T cell proliferation in SEB activated PBMCs
Assay: MSC and PBMC coculture, Ki67 T cell proliferation assay
Assay type: cell-based, human
Details: for inhibition of T cell proliferation by frozen-thawed MSCs pretreated with inhibitor prior to cryopreservation: Z-VAD-FMK 50 uM or 3-Methyl Adenine 1 mM pretreatment, FIG. 5A, 5B

Structure (SMILES) | effect of IDO blocking on suppression of T-cell proliferation by IFNgamma Cryo MSCs (1 mM added to coculture, FIG. 5F) | inhibition of T cell proliferation by frozen-thawed MSCs pretreated with inhibitor prior to cryopreservation
Cn1cc(C[C@H](N)C(=O)O)c2ccccc21 (racemic) [1-Methyl Tryptophan] | negates the suppressive effect | 
Cn1cnc(N)c2ncnc1-2 [3-Methyl Adenine] |  | defective in inhibiting T cell proliferation
COC(=O)C[C@H](NC(=O)[C@H](C)NC(=O)[C@@H](NC(=O)OCc1ccccc1)C(C)C)C(=O)CF [Z-VAD-FMK] (Cbz-Val-Ala-Asp(OMe)-CH2F) |  | defective in inhibiting T cell proliferation
